{
  "source": "patent US20110081362A1",
  "about": "“TREATMENT OF CANCER” (THE BRIGHAM AND WOMEN'S HOSPITAL, INC., priority 2008, published 2011)",
  "key": {"[1]": {"test_system": "HMECs, HCT116, HCC1954 and DLD-1 cells", "assay": "Cell viability after nutlin-3 treatment", "assay_type": "cell-based, human", "conditions": "4 days of nutlin-3 treatment; HMECs and HCT116 p53 wild-type, HCC1954 and DLD-1 p53 mutant", "experimental": "Cell viability is reflective of their p53 status (HMECs and HCT116 cells, p53 wild-type; HCC1954 and DLD-1 cells, p53 mutant). Cell viability was measured after 4 days of nutlin-3 treatment (*, P<0.05). ctrl, control.\nCells were infected in triplicate in 96-well or 24-well plates with retroviruses of individual shRNAs as described above, and the media was replaced 24 h after infection. On days 2, 6, or 9 post-infection, cell viability was measured using CellTiter-Glo reagent (Promega) per manufacturer's instruction on a Wallac Victor2 plate reader (Perkin Elmer)."}, "MDM2 and p21": {"test_system": "MDM2 and p21", "assay": "Western blot of MDM2 and p21 in response to nutlin-3", "assay_type": "cell-based, human", "conditions": "2 days post treatment", "text": "D. Top, Western blots of MDM2 protein knockdown in HCC1954 cells and HMECs by MDM2 shRNAs (4 days post-infection) as indicated in FIG. 4E.\nThe following primary and secondary antibodies were used for immunoblotting with the indicated dilutions: rabbit anti-Rbx1 and mouse anti-PRPS2 (1:500, Abcam), rabbit anti-MYPT1 (PPP1R12A gene product, 1:500, Upstate), mouse anti-tubulin and rabbit anti-GAPDH (1:2000, Sigma), mouse anti MDM2 (1:500, Santa Cruz), rabbit anti-BUB1 (1:500, Bethyl), mouse anti-p53 DO-1 and mouse anti-p21 (1:500, Calbiochem), goat anti-rabbit-HRP (1:5000, Jackson ImmunoResearch), and goat anti-mouse-HRP (1:5000, Jackson ImmunoResearch). Positive and negative siRNA controls, including siLUC, siTOX, siGLO duplexes and a PLK1 SMARTpool, were purchased from Dharmacon."}},
  "note": "Entries after “also recorded” stand apart in the source; their conditions may differ.",
  "data": [
    {"smiles": "COc1ccc(C2=N[C@@H](c3ccc(Cl)cc3)[C@@H](c3ccc(Cl)cc3)N2C(=O)N2CCNC(=O)C2)c(OC(C)C)c1", "note": "[nutlin-3]", "values": [
      {"measurement": "Cell viability, sensitivity to nutlin-3", "setting": "[1]", "value": "recapitulating the sensitivity of these cells to MDM2 inactivation; also recorded: Differential sensitivity of the four cell lines"},
      {"measurement": "MDM2 and p21 protein induction", "setting": "MDM2 and p21", "value": "MDM2 and p21 induction"}
    ]}
  ]
}
